Values joined by “and” are separate entries in the source; they are usually repeats but may differ in a detail not shown here. Equal values may be shown once.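 Interpolation was linear, between the two tested concentrations surrounding the appropriate level; five concentrations were tested over 48 hours in 96-well plates. GI50 marks 50% less growth. The concentration for full growth arrest is given as TGI.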 Where only a bound is given, the exact number is not on record here.

The test system of the test is MDA-MB-468 breast. Put plainly: NCI-60 cell line screen, 48 h.
With `CCOC(=O)c1ccc2c(c1)[n+](=O)c(C(=O)c1ccc3ccccc3c1)c(C(F)(F)F)n2[O-]`, the GI50 was 372 nM and the TGI turned out to be 1510 nM.
The matching figures for `Cn1cc(C2=C(c3c4n(c5ccccc35)CC(CN)C4)C(=O)NC2=O)c2ccccc21` (centres undefined): 2790 nM and 6170 nM.
The matching figures for `O=C1[C@H]2Cc3c([nH]c4ccccc34)[C@@H](c3ccc(Br)cc3)N2C(=O)CN1C1CCN(CC2CCCCC2)CC1`: 13200 nM and 27200 nM.
In the case of `COC1OCC(OS(=O)(=O)c2ccc(C)cc2)C(OC(=O)c2ccccc2)C1OC(=O)c1ccccc1` (centres undefined), the GI50 is 2500 nM and the TGI is greater than 100000 nM.
On the same counts, the results for `COc1cc(-c2cc(/C=C/C(=O)c3ccc4c(c3)OCO4)[nH]n2)cc(OC)c1OC` are 1400 nM and 2860 nM.
The matching figures for `Fc1ccc(CNc2c3ccccc3nc3ccccc23)cc1`: 1910 nM and 4860 nM.
For the compound `CS(=O)(=O)N1CCN(Cc2cc3nc(-c4cccc5[nH]ncc45)nc(N4CCOCC4)c3s2)CC1`, the GI50 is 55.3 nM and 123 nM; the TGI was 467 nM and 985 nM.
With `Nc1ncnc2c1c(-c1cccc(OCc3ccccc3)c1)cn2C1CC(CN2CCCC2)C1` (centres undefined), the GI50 is 1380 nM and the TGI was found to be 3140 nM.
In the case of `CCCN(CCC)c1ccc(C=O)cc1`, the GI50 is 16400 nM and the TGI worked out at 53900 nM.
On the same counts, the results for `O=C(c1ccccc1)c1ccc(Cl)c([N+](=O)[O-])c1` are 2160 nM and 6460 nM.
The matching figures for `CCOCCc1c(O)nc(SC)[nH]c1=O`: greater than 100000 nM and greater than 100000 nM.
Take `O=C1Nc2cc(Cl)ccc2Oc2cc(Oc3ccccc3)ccc21`: the GI50 is 1850 nM and the TGI is 8880 nM.
On the same counts, the results for `CCCn1cc(C2=C(c3cn(C)c4ccccc34)C(=O)NC2=O)c2ccccc21` are 429 nM and 11100 nM.
On the same counts, the results for `O=C(CSc1nc2ccc([N+](=O)[O-])cc2[nH]1)Nc1cccc(Cl)c1` are 1590 nM and 5890 nM.
On the same counts, the results for `COc1cc(C(=O)NC2CCN(C)CC2)ccc1Nc1ncc2c(n1)N(C1CCCC1)CC(F)(F)C(=O)N2C` are less than 10 nM and less than 42.7 nM.
On to `C=C1C(=O)O[C@H]2[C@H]1CC/C(COC(=O)/C=C\C(=O)NCc1ccc(Cn3c(=O)sn(-c4ccc(OC)cc4)c3=O)cc1)=C\CC[C@@]1(C)O[C@@H]21`, for which the GI50 is 652 nM and the TGI turned out to be 1520 nM.
On the same counts, the results for `COc1ccc(-n2c(SCC(=O)Nc3ccc(-c4nc5ccccc5[nH]4)cc3)nc3ccccc3c2=O)cc1` are 1970 nM and 4630 nM.
The matching figures for `CN(C)c1ccc(/C=C(\C#N)c2cc3ccccc3n2C)cc1`: 69.4 nM and 2110 nM.
The matching figures for `O=C(CCc1nnc(-c2c(Cl)cccc2Cl)o1)c1nc2ccccc2[nH]1`: 797 nM and 12200 nM.
Consider `CC(C)c1ccc2c(N=Nc3ccc(S(N)(=O)=O)cc3)c(O)[nH]c2c1`, for which the GI50 is 7760 nM and the TGI is greater than 25000 nM.
The matching figures for `CCOC(=O)C1=C(N)Oc2c(sc3c(C)cccc23)C1c1ccc(Cl)cc1` (centres undefined): 3110 nM and 13400 nM.
For the compound `COc1ccccc1CNCCCN1C(=O)c2ccc3c4c(ccc(c24)C1=O)C(=O)N(CCCNCCCCNCCCCN)C3=O`, the GI50 is 280 nM and the TGI worked out at 1170 nM.
For the compound `COc1ccc(C(=O)Nc2ncc(Cc3ccccc3Cl)s2)cc1`, the GI50 is 353 nM and the TGI amounted to 33000 nM.
The matching figures for `N/C(=N\c1nc2c(Cl)cc(Cl)cc2s1)C(Cl)(Cl)Cl`: 2850 nM and 12300 nM.
`CCCCCCCCCCCC1=NC(C)(C)CN1CCO`: the GI50 was 3270 nM and the TGI was determined as 12800 nM.
The matching figures for `Cc1ccc(Cl)cc1Nc1nc(C(F)(F)F)ccc1C(=O)N/N=C/c1c(Cl)cccc1Cl`: 662 nM and 8470 nM.
For `Nc1ccccc1/C=N\Nc1ccccc1`, the GI50 is 79700 nM and the TGI is greater than 100000 nM.
The matching figures for `O=C(/C=C/c1ccccn1)c1ccccc1O`: 1610 nM and 3100 nM.
For the compound `COc1ccc(Nc2c3c4c(cccc4[nH]c2=O)C(=O)c2ccccc2-3)cc1`, the GI50 was 23.7 nM.
As to `O=C1Nc2ccccc2C1(c1ccc(O)c(F)c1)c1ccc(O)c(F)c1`, the GI50 was 290 nM and the TGI was 996 nM.
The matching figures for `C(=N/Nc1ncnc2nc[nH]c12)/c1ccccn1`: 86.8 nM and 441 nM.
The matching figures for `C=C1C(=O)O[C@H]2[C@H]1CC/C(C=Nc1ccc(C(F)(F)F)cc1N)=C\CC[C@@]1(C)O[C@@H]21`: 3490 nM and 12600 nM.
Turning to `O=C(Nc1ncc(Cc2ccccc2)s1)c1ccc2c(c1)OCCO2`, the GI50 was 254 nM.
As to `O=C(CCCCC(=O)N/N=C\c1ccccc1Cl)N/N=C\c1ccccc1Cl`, the GI50 is 1830 nM and the TGI worked out at 49500 nM.
On to `CCc1ccc(CCC(=O)Nc2ncc(Cc3cc(Cl)ccc3Cl)s2)o1`, for which the GI50 was 769 nM and the TGI amounted to 5970 nM.
The matching figures for `Fc1ccc(-c2ncn(C3CCNCC3)c2-c2ccnc(Oc3ccccc3)n2)cc1`: 3690 nM and 12200 nM.
On the same counts, the results for `CC(C)(C)C(=O)OCOP(=O)(OCOC(=O)C(C)(C)C)C1CCCN(OC(=O)c2ccccc2)C1=O` (centres undefined) are 1860 nM and 14100 nM.
The matching figures for `C#CC[C@@H]1C[C@]2(C)[C@H]3CC[C@@H]4[C@H]5[C@H](C(=C)C)CC[C@]5(C(=O)O)CC[C@@]4(C)[C@]3(C)CC[C@H]2C(C)(C)[C@H]1O`: 2210 nM and 5290 nM.

The values above are taken from PubChem BioAssay (NCI).
